Values after ≈ are worked out from the molar mass of the structure shown.
Tests used:
Experiment in all cases: ≥ marks a high value that may be exact or a test limit, other limits are often not marked, values filed in µg/mL are converted to µM
[1] = tested on: Candida albicans CGMCC 2.2086
[2] = tested on: Candida parapsilosis CGMCC 2.3989
[3] = tested on: Candida tropicalis CGMCC 2.1975
[4] = tested on: Escherichia coli 078
[5] = tested on: Escherichia coli K88
[6] = tested on: Escherichia coli K99
[7] = tested on: Escherichia coli UB1005
[8] = tested on: Pseudomonas aeruginosa ATCC 27853
[9] = tested on: Salmonella enterica subsp. enterica serovar Pullorum ATCC 7913
[10] = tested on: Salmonella enterica subsp. enterica serovar Typhimurium ATCC 14028
[11] = tested on: Salmonella enterica subsp. enterica serovar Typhimurium C77-31
[12] = tested on: Staphylococcus aureus ATCC 25923
[13] = tested on: Staphylococcus aureus ATCC 29213
[14] = tested on: Staphylococcus aureus ATCC 43300
[15] = tested on: Staphylococcus epidermidis ATCC 12228
[16] = tested on: Bacillus subtilis ATCC 6633
[17] = tested on: Escherichia coli ATCC 25922
[18] = tested on: Klebsiella pneumoniae ATCC 10031
[19] = tested on: Micrococcus luteus ATCC 10240
[20] = tested on: Shigella dysenteriae ATCC 9752
[21] = tested on: Staphylococcus aureus ATCC 6538P
[22] = tested on: Erwinia amylovora PMV 6076
[23] = tested on: Pseudomonas syringae pv. syringae EPS 94
[24] = tested on: Xanthomonas campestris pv. Vesicatoria 2133-2
[25] = tested on: Clavibacter michiganensis subsp. michiganensis DSM 46294
[26] = tested on: Pectobacterium carotovorum subsp. carotovorum DSM 30168
[27] = tested on: Pseudomonas corrugata DSM 7228
[28] = tested on: Pseudomonas syringae pv. syringae DSM 10604
[29] = tested on: Pseudomonas syringae pv. tomato DC3000
[30] = tested on: Xanthomonas vesicatoria DSM 50861
[31] = tested on: Escherichia coli K12 MG1655
[32] = tested on: Pseudomonas aeruginosa PAO1
[33] = tested on: Salmonella enterica serovar Typhimurium

## CC[C@H](C)[C@H](NC(=O)[C@H](CCCCN)NC(=O)[C@H](C)NC(=O)[C@H](C)N)C(=O)N[C@H](C(=O)N[C@@H](CC(C)C)C(=O)N[C@@H](CC(N)=O)C(=O)N1CCC[C@H]1C(=O)N[C@@H](CCCCN)C(=O)N[C@@H](Cc1ccccc1)C(=O)N[C@@H](CCCN=C(N)N)C(=O)N[C@H]1CSSC[C@@H](C(N)=O)NC(=O)[C@H](Cc2ccccc2)NC(=O)[C@H](C)NC(=O)[C@H](C)NC(=O)[C@H](CCCCN)NC1=O)[C@@H](C)CC [AAKIILNPKFRCKAAFC]
[1]
  MIC: ≥ 128 µM
[2]
  MIC: ≥ 128 µM
[3]
  MIC: ≥ 128 µM
[4]
  MIC: ≥ 128 µM
[5]
  MIC: ≥ 32 µM
[6]
  MIC: ≥ 32 µM
[7]
  MIC: ≥ 64 µM
[8]
  MIC: > 128 µM
[9]
  MIC: ≥ 64 µM
[10]
  MIC: 64 µM (≈ 121 µg/mL)
[11]
  MIC: ≥ 128 µM
[12]
  MIC: 64 µM (≈ 121 µg/mL)
[13]
  MIC: > 128 µM
[14]
  MIC: > 128 µM
[15]
  MIC: > 128 µM

## CC[C@H](C)[C@H](NC(=O)[C@H](CCCN=C(N)N)NC(=O)[C@H](C)NC(=O)[C@H](C)N)C(=O)N[C@H](C(=O)N[C@@H](CC(C)C)C(=O)N[C@@H](CCCN=C(N)N)C(=O)N[C@@H](Cc1ccc(O)cc1)C(=O)N[C@@H](CCCN=C(N)N)C(=O)N[C@@H](Cc1ccccc1)C(=O)N[C@@H](CCCN=C(N)N)C(N)=O)[C@@H](C)CC [AARIILRYRFR]
[1]
  MIC: ≥ 128 µM
[2]
  MIC: ≥ 64 µM
[3]
  MIC: 16 µM (≈ 22.9 µg/mL)
[4]
  MIC: 4 µM (≈ 5.74 µg/mL)
[5]
  MIC: 4 µM (≈ 5.74 µg/mL)
[6]
  MIC: 4 µM (≈ 5.74 µg/mL)
[7]
  MIC: 4 µM (≈ 5.74 µg/mL)
[8]
  MIC: 16 µM (≈ 22.9 µg/mL)
[9]
  MIC: 4 µM (≈ 5.74 µg/mL)
[10]
  MIC: 8 µM (≈ 11.5 µg/mL)
[11]
  MIC: 4 µM (≈ 5.74 µg/mL)
[12]
  MIC: 8 µM (≈ 11.5 µg/mL)
[14]
  MIC: 4 µM (≈ 5.74 µg/mL)
[15]
  MIC: 2 µM (≈ 2.87 µg/mL)

## CC(C)C[C@H](NC(=O)[C@H](Cc1c[nH]c2ccccc12)NC(=O)CNC(=O)[C@H](CC(C)C)NC(=O)[C@@H](N)Cc1ccccc1)C(=O)N[C@@H](Cc1ccccc1)C(=O)N[C@@H](CCCCN)C(=O)N[C@@H](Cc1c[nH]c2ccccc12)C(=O)N[C@@H](C)C(=O)N[C@@H](Cc1c[nH]c2ccccc12)C(=O)N[C@@H](CCCCN)C(N)=O [FLGWLFKWAWK]
[16]
  MIC: 4.25 µM (≈ 6.3 µg/mL)
[17]
  MIC: 16.9 µM (≈ 25 µg/mL)
[18]
  MIC: 8.44 µM (≈ 12.5 µg/mL)
[19]
  MIC: 2.09 µM (≈ 3.1 µg/mL)
[8]
  MIC: > 135 µM
[10]
  MIC: 67.5 µM (≈ 99.9 µg/mL)
[20]
  MIC: 8.44 µM (≈ 12.5 µg/mL)
[21]
  MIC: 4.25 µM (≈ 6.3 µg/mL)
[15]
  MIC: 4.25 µM (≈ 6.3 µg/mL)

## CC(C)C[C@H](NC(=O)[C@H](CCC(=O)O)NC(=O)[C@H](CC(=O)O)NC(=O)[C@H](CCCCN)NC(=O)[C@H](CC(C)C)NC(=O)[C@H](Cc1cnc[nH]1)NC(=O)[C@H](CCC(=O)O)NC(=O)[C@H](Cc1c[nH]c2ccccc12)NC(=O)[C@H](CC(=O)O)NC(=O)[C@H](CCCCN)NC(=O)[C@H](CC(C)C)NC(=O)[C@H](Cc1cnc[nH]1)NC(=O)[C@H](CCC(=O)O)NC(=O)[C@H](Cc1c[nH]c2ccccc12)NC(=O)[C@H](CC(=O)O)NC(=O)[C@H](CCCCN)NC(=O)[C@H](CC(C)C)NC(=O)[C@H](Cc1cnc[nH]1)NC(=O)[C@H](CCC(=O)O)NC(=O)[C@H](Cc1c[nH]c2ccccc12)NC(=O)[C@H](CC(=O)O)NC(=O)[C@@H](N)CCCCN)C(=O)O [KDWEHLKDWEHLKDWEHLKDEL]
[22]
  MIC: ≥ 100 µM
[23]
  MIC: ≥ 100 µM
[24]
  MIC: ≥ 100 µM

## CC[C@H](C)[C@H](NC(=O)[C@H](CCCCN)NC(=O)[C@H](CCCCN)NC(=O)[C@H](Cc1ccccc1)NC(=O)[C@H](CC(C)C)NC(=O)[C@H](CCCCN)NC(=O)[C@@H](N)CCCCN)C(=O)N[C@@H](CC(C)C)C(=O)N[C@@H](CCCCN)C(=O)N[C@@H](Cc1ccc(O)cc1)C(=O)N[C@@H](CC(C)C)C(=O)N[C@@H](C)C(=O)NCC(=O)N1CCC[C@H]1C(=O)N[C@@H](C)C(=O)N[C@@H](CCCCN)C(=O)N[C@@H](Cc1ccccc1)C(=O)N[C@@H](CC(C)C)C(=O)N[C@@H](Cc1cnc[nH]1)C(=O)N[C@@H](CO)C(=O)N[C@@H](C)C(=O)N[C@@H](CCCCN)C(=O)O [KKLFKKILKYLAGPAKFLHSAK]
[22]
  MIC: 3.54 µM (≈ 8.95 µg/mL)
[23]
  MIC: 1.77 µM (≈ 4.47 µg/mL)
[24]
  MIC: 3.54 µM (≈ 8.95 µg/mL)

## CC[C@H](C)[C@H](NC(=O)[C@H](CCCCN)NC(=O)[C@H](CCCCN)NC(=O)[C@H](Cc1ccccc1)NC(=O)[C@H](CC(C)C)NC(=O)[C@H](CCCCN)NC(=O)[C@@H](N)CCCCN)C(=O)N[C@@H](CC(C)C)C(=O)N[C@@H](CCCCN)C(=O)N[C@@H](Cc1ccc(O)cc1)C(=O)N[C@@H](CC(C)C)C(=O)N[C@@H](CCCCN)C(=O)N[C@@H](Cc1ccccc1)C(=O)N[C@@H](CC(C)C)C(=O)N[C@@H](Cc1cnc[nH]1)C(=O)N[C@@H](CO)C(=O)N[C@@H](C)C(=O)N[C@@H](CCCCN)C(=O)N[C@@H](CCCCN)C(=O)N[C@@H](CC(=O)O)C(=O)N[C@@H](CCC(=O)O)C(=O)N[C@@H](CC(C)C)C(=O)O [KKLFKKILKYLKFLHSAKKDEL]
[22]
  MIC: 3.54 µM (≈ 9.61 µg/mL)
[23]
  MIC: 1.77 µM (≈ 4.81 µg/mL)
[24]
  MIC: 1.77 µM (≈ 4.81 µg/mL)

## CC[C@H](C)[C@H](NC(=O)[C@H](C)NC(=O)[C@H](CC(C)C)NC(=O)[C@H](CCCN=C(N)N)NC(=O)[C@H](CC(C)C)NC(=O)[C@@H](NC(=O)[C@H](CCCN=C(N)N)NC(=O)[C@H](CC(C)C)NC(=O)[C@@H](NC(=O)[C@H](CC(C)C)NC(=O)[C@H](CCCN=C(N)N)NC(=O)[C@H](CCCN=C(N)N)NC(=O)[C@@H](N)CCCCN)[C@@H](C)CC)[C@@H](C)CC)C(=O)N[C@@H](CCCN=C(N)N)C(=O)N[C@H](C(=O)N[C@@H](CC(C)C)C(=O)N[C@H](C(=O)N[C@@H](CCCCN)C(=O)N[C@@H](CCCCN)C(=O)N[C@@H](CCCN=C(N)N)C(N)=O)C(C)C)[C@@H](C)CC [KRRLILRILRLAIRILVKKR]
[25]
  MIC: 0.989 µM (≈ 2.5 µg/mL)
[26]
  MIC: 3.96 µM (≈ 10 µg/mL)
[27]
  MIC: 3.96 µM (≈ 10 µg/mL)
[28]
  MIC: 3.96 µM (≈ 10 µg/mL)
[29]
  MIC: 3.96 µM (≈ 10 µg/mL)
[30]
  MIC: 0.989 µM (≈ 2.5 µg/mL)

## CC(C)C[C@H](NC(=O)[C@H](CCCCN)NC(=O)[C@@H](N)CCCN=C(N)N)C(=O)N[C@@H](C)C(=O)N[C@@H](Cc1ccccc1)C(=O)N[C@@H](CCCCN)C(=O)N1CCC[C@H]1C(=O)N[C@@H](CC(C)C)C(=O)N[C@@H](CCCCN)C(=O)N[C@@H](CCCCN)C(=O)N[C@@H](Cc1ccccc1)C(=O)N[C@@H](Cc1ccccc1)C(=O)N[C@@H](CO)C(=O)N[C@@H](Cc1c[nH]c2ccccc12)C(=O)N[C@@H](CCCCN)C(=O)N[C@@H](CO)C(=O)O [RKLAFKPLKKFFSWKS]
[31]
  MIC: 7.95 µM (≈ 16 µg/mL)

## CC[C@H](C)[C@H](NC(=O)[C@@H](NC(=O)[C@H](CS)NC(=O)[C@@H](NC(=O)[C@H](CCCN=C(N)N)NC(=O)[C@H](CS)NC(=O)[C@H](CCCN=C(N)N)NC(=O)[C@H](CC(C)C)NC(=O)[C@H](CCC(N)=O)NC(=O)[C@@H](N)C(C)C)C(C)C)C(C)C)C(=O)N[C@@H](CCCN=C(N)N)C(=O)N[C@@H](CCCCN)C(=O)O [VQLRCRVCVIRK]
[17]
  MIC: 21.7 µM (≈ 32 µg/mL)
[32]
  MIC: 43.5 µM (≈ 64 µg/mL)
[33]
  MIC: 21.7 µM (≈ 32 µg/mL)
[12]
  MIC: 43.5 µM (≈ 64 µg/mL)

From DBAASP
